Laboratory results: patent US6339081B1, “Composition and use” (priority 1996, dated 2002)

Key:
Assay type in all cases: cell-based
[1] = system: Pseudomonas aeruginosa NCIB 10421; assay: MIC and Fractional Inhibitory Concentration (FIC) in microtitre array
Protocol: The gram negative bacterium, Pseudomonas aeruginosa NCIB 10421 was grown in nutrient broth to stationary phase during 18 hours and contained approximately 10^9 organisms/ml. A 0.1% (v/v) inoculum was used to seed fresh nutrient broth and 100 μl was then added to each well of a microtitre plate, except for the first well which contained 200 μl.
Solutions of zinc acetate (ZnAc) and the 2:1 zinc complex of 3-hydroxy-4-methylthiazol-2(3H)-thione (ZHMT), respectively, were prepared in nutrient broth at twice the final concentration to be used in the microtitre array. A microtitre array was prepared with concentration of zinc acetate and ZHMT from twice the MIC down to zero concentration in a 10×10 array. Since the array contains only 96 wells, the highest and lowest concentration of the zinc acetate and ZHMT were omitted. The dilution of the ZHMT was doubled across the ordinate axis of the array by transferring 100 μl aliquots so that the final volume in each well was 200 μl. The microtitre plate was then incubated for 16 to 24 hours at 37° C. and the presence of bacterial growth assessed visually.
The FIC is defined as the sum of the fractional inhibitory concentration of each component. The FIC of the individual component is the ratio of the concentration of the component in the binary mixture divided by its MIC.

mixed bacterial culture = assay: Preservation of unpreserved latex, repeated challenge with mixed bacterial culture; set-up: key to Viable bacteria, Third inoculum (days) 5 / Viable bacteria, Third inoculum (days) 7 / Viable bacteria, First inoculum (days) 3 / Viable bacteria, First inoculum (days) 5 / Viable bacteria, First inoculum (days) 7 / Viable bacteria, Second inoculum (days) 3 / Viable bacteria, Second inoculum (days) 5 / Viable bacteria, Second inoculum (days) 7 / Viable bacteria, Third inoculum (days) 3: C is confluent growth over the surface; − is no visible colonies; + is few visible colonies; ++ is clusters of discreet colonies
Protocol: Aliquots (25 parts) of unpreserved latex containing 50% by weight solids of a copolymer of 2-ethylhexylacrylate/acrylic acid at pH 8.5 were formulated with zinc acetate and the 2:1 zinc complex of 3-hydroxy4-methyl thiazol-2(3H)-thione in the amounts shown in Table 1 below. After formulation, each aliquot was stored at 20° C. for 1 week prior to inoculation with a mixed bacterial culture.
The bacterial culture was prepared by culturing the following seven bacteria in nutrient agar for 24 hours at 30° C.
Each of the individual bacterium was prepared at a concentration of 10^8 cells/ml in quarter strength Ringers solution by means of a Thoma counting chamber. The mixed inoculum was prepared by mixing equal volumes of the cultures containing the individual bacterium.
The latex aliquots were repeatedly inoculated at 0, 7 and 14 day intervals with 0.5 ml mixed inoculum (2×10^6 cells/ml) and incubated at 30° C. The number of viable bacteria was determined by streaking a small portion of each aliquot of latex onto nutrient agar after 3, 5 and 7 days followed by visible assessment after incubation for 2 days at 30° C.

[2] = system: contaminated matt paint millbase; assay: Viable cells in contaminated matt paint millbase
Protocol: 25 ml Aliquots of a contaminated matt paint millbase were formulated with the 2:1 zinc complex of 3-hydroxy-4-methylthiazol-2(3H)-thione and zinc acetate as shown in Table 2 below. The number of variable cells was determined by streaking a small portion of each aliquot of millbase onto nutrient agar after 5, 7 and 14 days. The number of cells was determined by visible assessment following incubation for 2 days at 30° C.

[3] = latex, Amount 200 ppm of each component present

Row | SMILES | synergy with ZnAc ([1]; ZHMT replaced by this complex) | FIC [1] | Minimum Inhibitory Concentrations (MIC) [1] [ppm] | Viable bacteria, First inoculum (days) 3 (mixed bacterial culture; [3]) | Viable bacteria, First inoculum (days) 5 (mixed bacterial culture; [3]) | Viable bacteria, First inoculum (days) 7 (mixed bacterial culture; [3]) | Viable bacteria, Second inoculum (days) 3 (mixed bacterial culture; [3]) | Viable bacteria, Second inoculum (days) 5 (mixed bacterial culture; [3]) | Viable bacteria, Second inoculum (days) 7 (mixed bacterial culture; [3]) | Viable bacteria, Third inoculum (days) 3 (mixed bacterial culture; [3]) | Viable bacteria, Third inoculum (days) 5 (mixed bacterial culture; [3]) | Viable bacteria, Third inoculum (days) 7 (mixed bacterial culture; [3]) | antimicrobial activity in latex (mixed bacterial culture; zinc salt alone, 200 ppm (Table 1)) | effect on activity of the metal complex [2]
1 | [O-]n1ccccc1=S.[O-]n1ccccc1=S.[Zn+2] [2:1 zinc complex of 1-hydroxypyridine-2-thione] | no synergy |  |  |  |  |  |  |  |  |  |  |  |  | 
2 | CC(=O)[O-].CC(=O)[O-].[Zn+2] [ZA, zinc acetate] |  | 1 | 250 | − | − | − | ++ | ++ | ++ | ++ | ++ | ++ | no antimicrobial activity | increases the bacterial activity of the metal complex
